Assay results published in US11198694B2, “HDAC6 inhibitors, with improved solubility and their uses” (UNIVERSITÄT REGENSBURG, priority 2017, dated 2021).
One block for each compound: values may come before it.

Tests used:
human HDAC2 = molecular target: T1, human HDAC2 (Homo sapiens, UniProt Q92769); experiment: Fluorescence HDAC enzyme inhibition assay (Reaction Biology Corporation); format: biochemical
T1 construct: purchased Reaction Biology Corporation HDAC2
Procedure: (§1) The IC50 values for the various inhibitors against the isoenzymes of HDAC were measured by Reaction Biology Corporation (Malvern, Pa., USA) (Buffer, Kalin et al. 2010): For the enzyme inhibition assay, human recombinant protein material was used (human HDAC2 (CAT #: HDAC2), human HDAC6 (CAT #: HDAC6) or human HDAC8 (CAT #: HDAC8)). A 10-point dose response curve was prepared using a 3-fold dilution series (1:3), started at a concentration of 1 μM in DMSO for the synthesized drugs and 10 μM in DMSO for the reference substance Trichostatin A231 (TSA, for HDAC 2, 6 and 8). Reaction time was 90 minutes at 37° C. in a volume of 50 μL in a 96 well plate. Reaction buffer: 50 mM Tris-HCl, pH=8.0, 137 mM NaCl, 2.7 mM KCl, and 1 mM MgCl2 freshly added: 1 mg/ml bovine serum albumin. The fluorescence was measured using a fluoroscope Ascent™ FL fluorometer. The percent enzyme activity was calculated relative to the DMSO control. IC50 values were calculated using GraphPad Prism (GraphPad Prism 4.0 Software, San Diego, USA) based on a sigmoidal dose-response equation.
(§2) HDAC enzyme inhibition assays were conducted by Reaction Biology Corporation (Malvern, Pa., USA) using a ten point dose response curve with half-log serial dilutions, fluorogenic peptides at 50 μM as enzymatic substrates. Substrate for HDAC 2 and 6: fluorogenic peptide from p53 residues 379-382 (RHKK(Ac)AMC). Substrate for HDAC-8: fluorogenic peptide from p53 residues 379-382 (RHK(Ac)K(Ac)AMC).

human HDAC6 = molecular target: T2, human HDAC6 (Homo sapiens, UniProt Q9UBN7); experiment: as above; format: biochemical
T2 construct: purchased Reaction Biology Corporation HDAC6
T2 sequence (Q9UBN7 1-1215): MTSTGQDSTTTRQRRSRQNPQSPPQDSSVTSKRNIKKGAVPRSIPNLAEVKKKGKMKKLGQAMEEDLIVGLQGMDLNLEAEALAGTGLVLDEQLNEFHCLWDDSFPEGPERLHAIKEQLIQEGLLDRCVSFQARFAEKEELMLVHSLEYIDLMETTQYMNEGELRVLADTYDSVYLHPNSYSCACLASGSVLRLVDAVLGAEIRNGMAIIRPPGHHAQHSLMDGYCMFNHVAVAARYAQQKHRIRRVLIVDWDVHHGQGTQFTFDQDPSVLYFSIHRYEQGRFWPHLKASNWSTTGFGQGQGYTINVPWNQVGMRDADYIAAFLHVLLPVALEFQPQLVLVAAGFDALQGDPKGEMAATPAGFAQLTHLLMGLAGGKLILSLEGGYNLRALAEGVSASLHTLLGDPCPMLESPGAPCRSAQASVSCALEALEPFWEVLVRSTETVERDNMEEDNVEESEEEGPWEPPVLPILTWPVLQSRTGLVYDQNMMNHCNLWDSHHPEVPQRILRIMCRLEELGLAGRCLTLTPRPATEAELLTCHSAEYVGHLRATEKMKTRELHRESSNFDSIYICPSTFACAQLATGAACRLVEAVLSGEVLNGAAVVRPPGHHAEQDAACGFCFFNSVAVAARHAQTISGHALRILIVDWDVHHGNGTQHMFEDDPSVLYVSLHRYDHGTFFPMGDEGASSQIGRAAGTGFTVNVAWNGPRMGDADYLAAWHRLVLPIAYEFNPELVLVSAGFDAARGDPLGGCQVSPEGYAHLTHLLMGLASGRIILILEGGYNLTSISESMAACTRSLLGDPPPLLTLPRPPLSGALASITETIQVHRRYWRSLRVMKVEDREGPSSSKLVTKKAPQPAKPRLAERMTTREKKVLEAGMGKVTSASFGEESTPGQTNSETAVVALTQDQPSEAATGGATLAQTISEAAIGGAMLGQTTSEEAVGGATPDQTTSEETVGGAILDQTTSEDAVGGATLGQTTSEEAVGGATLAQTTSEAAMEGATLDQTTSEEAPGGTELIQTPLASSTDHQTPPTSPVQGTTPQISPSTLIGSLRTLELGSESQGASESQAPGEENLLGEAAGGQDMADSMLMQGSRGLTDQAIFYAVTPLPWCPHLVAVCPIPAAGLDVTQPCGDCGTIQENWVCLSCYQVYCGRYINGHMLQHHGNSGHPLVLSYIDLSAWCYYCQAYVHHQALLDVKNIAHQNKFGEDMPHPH
Procedure: as §1, §2

human HDAC8 = molecular target: T3, human HDAC8 (Homo sapiens, UniProt Q9BY41); experiment: as above; format: biochemical
T3 construct: purchased Reaction Biology Corporation HDAC8
T3 sequence (Q9BY41 1-377): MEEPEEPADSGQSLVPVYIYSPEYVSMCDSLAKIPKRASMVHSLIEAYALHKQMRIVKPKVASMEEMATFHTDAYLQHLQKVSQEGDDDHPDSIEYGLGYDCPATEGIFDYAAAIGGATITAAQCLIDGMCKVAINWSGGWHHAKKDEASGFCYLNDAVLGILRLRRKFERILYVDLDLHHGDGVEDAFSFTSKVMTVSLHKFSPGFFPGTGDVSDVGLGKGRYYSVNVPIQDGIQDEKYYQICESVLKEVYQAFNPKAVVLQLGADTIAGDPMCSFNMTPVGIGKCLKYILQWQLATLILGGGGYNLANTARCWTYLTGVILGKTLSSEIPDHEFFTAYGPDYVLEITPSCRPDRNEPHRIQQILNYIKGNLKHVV
Procedure: as §1, §2

Solubility in H2O = format: physicochemical; settings: water

T1 sequence (Q92769 whole entry): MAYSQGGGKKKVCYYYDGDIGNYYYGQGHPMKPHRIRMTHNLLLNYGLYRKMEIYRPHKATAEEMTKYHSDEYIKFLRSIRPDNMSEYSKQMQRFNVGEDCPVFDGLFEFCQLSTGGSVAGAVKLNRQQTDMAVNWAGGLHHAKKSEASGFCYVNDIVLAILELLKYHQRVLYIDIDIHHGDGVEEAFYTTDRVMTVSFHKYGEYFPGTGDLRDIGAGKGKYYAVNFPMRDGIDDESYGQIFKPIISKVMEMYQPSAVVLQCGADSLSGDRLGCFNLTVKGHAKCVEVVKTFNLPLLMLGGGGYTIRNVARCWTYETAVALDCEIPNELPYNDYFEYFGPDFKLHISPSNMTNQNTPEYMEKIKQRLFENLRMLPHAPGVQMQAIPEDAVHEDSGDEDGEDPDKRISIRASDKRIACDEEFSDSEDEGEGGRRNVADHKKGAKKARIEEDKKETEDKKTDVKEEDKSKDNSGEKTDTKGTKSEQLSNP

SMILES: CN1C(=O)[C@@H]2CN(Cc3c2c2cc(OCCN4CCOCC4)ccc2n3Cc2ccc(C(=O)NO)cc2)C1=O [(S)-21, N-Hydroxy-4-(((6S)-4-methyl-8-(2-morpholinoethoxy)-3,5-dioxo-3,4,5,6-tetrahydro-2,6-methano[1,3]diazocino[5,6-b]indole-11(1H)-yl)methyl)benzamide]
- IC50 (human HDAC2): 1800 nM
- IC50 (human HDAC6): 3.02 nM
- IC50 (human HDAC8): 364 nM

SMILES: CN1C(=O)C2CN(Cc3c2c2ccccc2n3Cc2ccc(C(=O)NO)cc2)C1=O (stereo not drawn)
- solubility (Solubility in H2O): < 1000 µg/mL

SMILES: CN1C(=O)[C@H]2CN(Cc3c2c2cc(OCCN4CCOCC4)ccc2n3Cc2ccc(C(=O)NO)cc2)C1=O [(R)-21, N-Hydroxy-4-(((6R)-4-methyl-8-(2-morpholinoethoxy)-3,5-dioxo-3,4,5,6-tetrahydro-2,6-methano[1,3]diazocino[5,6-b]indole-11(1B)-yl)methyl)benzamide]
- IC50 (human HDAC2): 13000 nM
- IC50 (human HDAC6): 7.05 nM
- IC50 (human HDAC8): 1970 nM

SMILES: CN1C(=O)C2c3c(c4ccccc4n3Cc3ccc(C(=O)NO)cc3)CCN2C1=O (stereo not drawn) [Compound 41, N-Hydroxy-4-((2-methyl-1,3-dioxo-2,3,5,6-tetrahydro-1H-imidazo[1′,5′:1,2]pyrido[3,4-b]indol-11(11bH)-yl)methyl)benzamide]
- IC50 (human HDAC6): 30.7 ± 5.8 nM
- IC50 (human HDAC8): 83 ± 6 nM

SMILES: CN1C(=O)C2CN(Cc3c2c2cc(OCCN4CCOCC4)ccc2n3Cc2ccc(C(=O)NO)cc2)C1=O (stereo not drawn) [Compound 21, 4-(2-((11-(4-(Hydroxycarbamoyl)benzyl)-4-methyl-3,5-dioxo-1,3,4,5,6,11-hexahydro-2,6-methano[1,3]diazocino[5,6-b]indol-8-yl)oxy)ethyl)morpholin-4-ium chloride]
- IC50 (human HDAC6): 2.41 ± 0.76 nM
- IC50 (human HDAC8): 121 ± 10 nM

The next lines start with the values.

- IC50 (human HDAC6): 16.4 ± 0.75 nM
- IC50 (human HDAC8): 251 ± 32.5 nM
SMILES: CN1CC(=O)N2CCc3c(c4ccccc4n3Cc3ccc(C(=O)NO)cc3)C2C1=O (stereo not drawn) [Compound 31b, N-hydroxy-4-((2-methyl-1,4-dioxo-1,3,4,6,7,12c-hexahydropyrazino[1′,2′:1,2]pyrido[4,3-b]indol-8(2H)-yl)methyl)benzamide]

- IC50 (human HDAC6): 8.99 ± 1.11 nM
- melting point: 248.1 to 251.7 °C
SMILES: CN1C(=O)C2c3c(n(Cc4ccc(C(=O)NO)cc4)c4ccccc34)CCN2C1=O (stereo not drawn) [Compound 31a, N-Hydroxy-4-((2-methyl-1,3-dioxo-2,3,5,6-tetrahydro-1H-imidazo[1′,5′:1,2]pyrido[4,3-b]indol-7(11cH)-yl)methyl)benzamide]
